16 compounds from patent publication US20230322761A1, “DEGRADATION OF BRUTON'S TYROSINE KINASE (BTK) BY CONJUGATION OF BTK INHIBITORS WITH E3 LIGASE LIGAND AND METHODS OF USE” (BEIGENE, LTD., priority 2020, published 2023) can be followed below.

This experiment deals with T1, BTK (Homo sapiens, UniProt Q06187).
T1 construct: endogenous in cells; host or cells: TMD-8 cells
Nature of the experiment: BTK degradation in TMD-8 cells, HTRF assay after 6 h treatment. The settings on record: for DC50: IC50 (DC50) of BTK degradation; for Dmax: TMD8, maximum percentage of inhibition (degradation). Type of experiment: cell-based. As to the method: TMD-8 cells are treated with compounds diluted in 0.2% DMSO, dilution is done according to the following protocol: (1) make 500× stock solution in DMSO from 1 mM by 6-fold dilution, total 8 doses were included; (2) make 2× solution in cell culture medium by transferring 0.5 μl 500× stock solution into 125 μl medium; (3) 15 μl of 2× solution is added to cells and incubate for 6 h.
After 6 h treatment, add 10 μl 4×lysis buffer to each well; seal the plate and incubate 30 min at room temperature on a plate shaker; Once the cells are lysed, 16 μL of cell lysate are transferred to a PE 384-well HTRF detection plate; 4 μL of pre-mixed HTRF antibodies are added to each well; Cover the plate with a plate sealer, spin 1000 rpm for 1 min, Incubate overnight at room temperature; Read on BMG PheraStar with HTRF protocol (337 nm-665 nm-620 nm).
The IC50 (DC50) value of a compound can be obtained by fitting the following equation
Y=Bottom+(TOP−Bottom)/(1+((IC50/X)^hillslope))
Wherein, X and Y are known values, and IC50, Hillslope, Top and Bottom are the parameters obtained by fitting with software. Y is the inhibition percentage (calculated from the equation), X is the concentration of the compound; IC50 is the concentration of the compound when the 50% inhibition is reached. The smaller the IC50 value is, the stronger the inhibitory ability of the compound is. Vice versa, the higher the IC50 value is, the weaker the ability the inhibitory ability of the compound is; Hillslope represents the slope of the fitted curve, generally around 1*; Bottom represents the minimum value of the curve obtained by data fitting, which is generally 0%±20%; Top represents the maximum value of the curve obtained by data fitting, which is generally 100%±20%. The experimental data were fitted by calculating and analyzing with Dotmatics data analysis software.

T1 sequence (Q06187 whole entry): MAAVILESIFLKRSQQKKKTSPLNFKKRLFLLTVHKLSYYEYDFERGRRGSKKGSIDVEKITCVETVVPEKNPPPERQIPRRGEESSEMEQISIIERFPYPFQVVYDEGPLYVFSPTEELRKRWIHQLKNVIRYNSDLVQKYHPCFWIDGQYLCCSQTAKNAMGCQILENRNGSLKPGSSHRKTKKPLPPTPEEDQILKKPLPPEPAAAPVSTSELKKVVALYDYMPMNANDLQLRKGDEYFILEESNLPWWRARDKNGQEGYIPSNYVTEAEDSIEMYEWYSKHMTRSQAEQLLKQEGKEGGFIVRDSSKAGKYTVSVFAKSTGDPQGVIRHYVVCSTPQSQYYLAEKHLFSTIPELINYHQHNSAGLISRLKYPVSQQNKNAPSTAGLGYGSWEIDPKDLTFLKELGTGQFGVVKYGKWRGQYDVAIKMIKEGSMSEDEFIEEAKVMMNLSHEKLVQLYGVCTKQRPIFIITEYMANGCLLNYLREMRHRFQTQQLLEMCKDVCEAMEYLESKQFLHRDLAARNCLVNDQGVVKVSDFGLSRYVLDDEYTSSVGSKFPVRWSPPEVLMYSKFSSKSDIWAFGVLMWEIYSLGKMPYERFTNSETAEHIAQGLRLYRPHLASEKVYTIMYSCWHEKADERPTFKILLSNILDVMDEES

The term DC50 denotes the midpoint of the concentration-degradation curve. A higher DC50 goes with degradation only at high concentration. The Dmax is the greatest extent of degradation seen. High values mean deep degradation, low ones shallow degradation. `Cc1cc(-c2n[nH]c3ncc(-c4ccc(N5CCN(CCc6ccc(C7CCC(=O)NC7=O)c(F)c6)CC5)cc4)cc23)ccc1[C@@H](C)NC(=O)c1nc(C(C)(C)C)no1` (stereo partly drawn) [Example 34, 3-(tert-butyl)-N-((1R)-1-(4-(5-(4-(4-(4-(2,6-dioxopiperidin-3-yl)-3-fluorophenethyl)piperazin-1-yl)phenyl)-1H-pyrazolo[3,4-b]pyridin-3-yl)-2-methylphenyl)ethyl)-1,2,4-oxadiazole-5-carboxamide] returned a DC50 of 3.39 nM and a Dmax of 95.6%.

`Cc1cc(-c2n[nH]c3ncc(-c4ccc(N5CCN(CCc6ccc(C7CCC(=O)NC7=O)cc6)CC5)cc4)cc23)ccc1[C@@H](C)NC(=O)c1noc(C(C)(C)C)n1` (stereo partly drawn) [Example 35, 5-(tert-butyl)-N-((1R)-1-(4-(5-(4-(4-(4-(2,6-dioxopiperidin-3-yl)phenethyl)piperazin-1-yl)phenyl)-1H-pyrazolo[3,4-b]pyridin-3-yl)-2-methylphenyl)ethyl)-1,2,4-oxadiazole-3-carboxamide] showed a DC50 of 1.9 nM and a Dmax of 93%. `Cc1cc(-c2n[nH]c3ncc(-c4ccc(N5CCN(CCc6ccc(C7CCC(=O)NC7=O)c(F)c6)CC5)cc4)cc23)ccc1[C@@H](C)NC(=O)c1noc(C(C)(C)C)n1` (stereo partly drawn) [Example 36, 5-(tert-butyl)-N-((1R)-1-(4-(5-(4-(4-(4-(2,6-dioxopiperidin-3-yl)-3-fluorophenethyl)piperazin-1-yl)phenyl)-1H-pyrazolo[3,4-b]pyridin-3-yl)-2-methylphenyl)ethyl)-1,2,4-oxadiazole-3-carboxamide] yielded a DC50 of 3 nM and a Dmax of 98.3%. `Cc1cc(-c2n[nH]c3ncc(-c4ccc(N5CCN(CC6CCN(c7ccc(N8CCC(=O)NC8=O)cc7)CC6)CC5)cc4)cc23)ccc1[C@@H](C)NC(=O)c1noc(C(C)(C)C)n1` [Example 37, (R)-5-(tert-butyl)-N-(1-(4-(5-(4-(4-((1-(4-(2,4-dioxotetrahydropyrimidin-1(2H)-yl)phenyl)piperidin-4-yl)methyl)piperazin-1-yl)phenyl)-1H-pyrazolo[3,4-b]pyridin-3-yl)-2-methylphenyl)ethyl)-1,2,4-oxadiazole-3-carboxamide]: the DC50 was found to be 2.52 nM and the Dmax amounted to 93.4%. Regarding `Cc1cc(-c2n[nH]c3ncc(-c4ccc(N5CCN(CC6CCN(c7ccc(N8CCC(=O)NC8=O)c(F)c7)CC6)CC5)cc4)cc23)ccc1[C@@H](C)NC(=O)c1noc(C(C)(C)C)n1` [Example 38, (R)-5-(tert-butyl)-N-(1-(4-(5-(4-(4-((1-(4-(2,4-dioxotetrahydropyrimidin-1(2H)-yl)-3-fluorophenyl)piperidin-4-yl)methyl)piperazin-1-yl)phenyl)-1H-pyrazolo[3,4-b]pyridin-3-yl)-2-methylphenyl)ethyl)-1,2,4-oxadiazole-3-carboxamide], the 50% degradation concentration (DC50) amounted to 3.2 nM. That is a single-digit nanomolar value.

Regarding `Cc1cc(-c2n[nH]c3ncc(-c4ccc(N5CCN(CC6CCN(c7ccc(N8CCC(=O)NC8=O)c(C)c7)CC6)CC5)cc4)cc23)ccc1[C@@H](C)NC(=O)c1noc(C(C)(C)C)n1` [Example 39, (R)-5-(tert-butyl)-N-(1-(4-(5-(4-(4-((1-(4-(2,4-dioxotetrahydropyrimidin-1(2H)-yl)-3-methylphenyl)piperidin-4-yl)methyl)piperazin-1-yl)phenyl)-1H-pyrazolo[3,4-b]pyridin-3-yl)-2-methylphenyl)ethyl)-1,2,4-oxadiazole-3-carboxamide], half-maximal degradation (DC50) was put at 2.6 nM.

`Cc1cc(CCN2CCN(c3ccc(-c4cnc5[nH]nc(-c6ccc([C@@H](C)NC(=O)c7noc(C(C)(C)C)n7)c(C)c6)c5c4)cc3)CC2)ccc1C1CCC(=O)NC1=O` (stereo partly drawn) [Example 40, 5-(tert-butyl)-N-((1R)-1-(4-(5-(4-(4-(4-(2,6-dioxopiperidin-3-yl)-3-methylphenethyl)piperazin-1-yl)phenyl)-1H-pyrazolo[3,4-b]pyridin-3-yl)-2-methylphenyl)ethyl)-1,2,4-oxadiazole-3-carboxamide]: half-maximal degradation (DC50) was put at 7.32 nM. For the compound `Cc1cc(-c2n[nH]c3ncc(-c4ccc(N5CCN(CC6CCN(c7ccc(N8CCC(=O)NC8=O)cc7)CC6)CC5)cc4)cc23)ccc1CNC(=O)c1noc(C(C)(C)C(F)(F)F)n1` [Example 41, N-(4-(5-(4-(4-((1-(4-(2,4-dioxotetrahydropyrimidin-1(2H)-yl)phenyl)piperidin-4-yl)methyl)piperazin-1-yl)phenyl)-1H-pyrazolo[3,4-b]pyridin-3-yl)-2-methylbenzyl)-5-(1,1,1-trifluoro-2-methylpropan-2-yl)-1,2,4-oxadiazole-3-carboxamide], the DC50 turned out to be 7.05 nM.

As to `Cc1cc(-c2n[nH]c3ncc(-c4ccc(N5CCN(CC6CCN(c7ccc(N8CCC(=O)NC8=O)cc7)CC6)CC5)cc4)cc23)ccc1CNC(=O)c1noc(C2(C(F)(F)F)CC2)n1` [Example 42, N-(4-(5-(4-(4-((1-(4-(2,4-dioxotetrahydropyrimidin-1(2H)-yl)phenyl)piperidin-4-yl)methyl)piperazin-1-yl)phenyl)-1H-pyrazolo[3,4-b]pyridin-3-yl)-2-methylbenzyl)-5-(1-(trifluoromethyl)cyclopropyl)-1,2,4-oxadiazole-3-carboxamide], half-maximal degradation (DC50) was put at 22.8 nM. This DC50 is about 3.2-fold higher than that of the compound before. On the same count and under the same terms, with `Cc1c([C@@H](C)NC(=O)c2noc(C(C)(C)C)n2)ccc(-c2n[nH]c3ncc(-c4ccc(N5CCN(CC6CCN(c7ccc(N8CCC(=O)NC8=O)cc7)CC6)CC5)cc4)cc23)c1F` [Example 43, (R)-5-(tert-butyl)-N-(1-(4-(5-(4-(4-((1-(4-(2,4-dioxotetrahydropyrimidin-1(2H)-yl)phenyl)piperidin-4-yl)methyl)piperazin-1-yl)phenyl)-1H-pyrazolo[3,4-b]pyridin-3-yl)-3-fluoro-2-methylphenyl)ethyl)-1,2,4-oxadiazole-3-carboxamide] the figure was 3.44 nM. On to `Cc1cc(-c2n[nH]c3ncc(-c4ccc(N5CCN(CC6CCN(c7ccc(N8CCC(=O)NC8=O)cc7)CC6)CC5)cc4)cc23)c(F)cc1[C@@H](C)NC(=O)c1noc(C(C)(C)C)n1` [Example 44, (R)-5-(tert-butyl)-N-(1-(4-(5-(4-(4-((1-(4-(2,4-dioxotetrahydropyrimidin-1(2H)-yl)phenyl)piperidin-4-yl)methyl)piperazin-1-yl)phenyl)-1H-pyrazolo[3,4-b]pyridin-3-yl)-5-fluoro-2-methylphenyl)ethyl)-1,2,4-oxadiazole-3-carboxamide], for which half-maximal degradation (DC50) was put at 6.02 nM. As to `Cc1c([C@@H](C)NC(=O)c2nc(C(C)(C)C)no2)ccc(-c2n[nH]c3ncc(-c4ccc(N5CCN(CC6CCN(c7ccc(N8CCC(=O)NC8=O)cc7)CC6)CC5)cc4)cc23)c1F` [Example 45, (R)-3-(tert-butyl)-N-(1-(4-(5-(4-(4-((1-(4-(2,4-dioxotetrahydropyrimidin-1(2H)-yl)phenyl)piperidin-4-yl)methyl)piperazin-1-yl)phenyl)-1H-pyrazolo[3,4-b]pyridin-3-yl)-3-fluoro-2-methylphenyl)ethyl)-1,2,4-oxadiazole-5-carboxamide], it took 2.15 nM to reach half-maximal degradation (DC50). On the same count and under the same terms, with `Cc1cc(-c2n[nH]c3ncc(-c4ccc(N5CCN(CC6CCN(c7ccc(N8CCC(=O)NC8=O)cc7)CC6)CC5)cc4)cc23)c(F)cc1[C@@H](C)NC(=O)c1nc(C(C)(C)C)no1` [Example 46, (R)-3-(tert-butyl)-N-(1-(4-(5-(4-(4-((1-(4-(2,4-dioxotetrahydropyrimidin-1(2H)-yl)phenyl)piperidin-4-yl)methyl)piperazin-1-yl)phenyl)-1H-pyrazolo[3,4-b]pyridin-3-yl)-5-fluoro-2-methylphenyl)ethyl)-1,2,4-oxadiazole-5-carboxamide] the figure was 5.13 nM; with `Cc1cc(-c2n[nH]c3ncc(-c4ccc(N5CCN(CCC6CCN(c7ccc(C8CCC(=O)NC8=O)c(F)c7)CC6)CC5)cc4)cc23)ccc1CNC(=O)c1noc(C(C)(C)C)n1` (centres unmarked) [Example 48, 5-(tert-butyl)-N-(4-(5-(4-(4-(2-(1-(4-(2,6-dioxopiperidin-3-yl)-3-fluorophenyl)piperidin-4-yl)ethyl)piperazin-1-yl)phenyl)-1H-pyrazolo[3,4-b]pyridin-3-yl)-2-methylbenzyl)-1,2,4-oxadiazole-3-carboxamide], 4.76 nM; with `COc1cc(N2CCC(CN3CCN(c4ccc(-c5cnc6[nH]nc(-c7ccc(CNC(=O)c8noc(C(C)(C)C)n8)c(C)c7)c6c5)cc4)CC3)CC2)ccc1N1CCC(=O)NC1=O` [Example 50, 5-(tert-butyl)-N-(4-(5-(4-(4-((1-(4-(2,4-dioxotetrahydropyrimidin-1(2H)-yl)-3-methoxyphenyl)piperidin-4-yl)methyl)piperazin-1-yl)phenyl)-1H-pyrazolo[3,4-b]pyridin-3-yl)-2-methylbenzyl)-1,2,4-oxadiazole-3-carboxamide], 4.65 nM. `Cc1cc(-c2n[nH]c3ncc(-c4ccc(N5CCN(CCc6ccc(C7CCC(=O)NC7=O)c(Cl)c6)CC5)cc4)cc23)ccc1CNC(=O)c1noc(C(C)(C)C)n1` (centres unmarked) [Example 51, 5-(tert-butyl)-N-(4-(5-(4-(4-(3-chloro-4-(2,6-dioxopiperidin-3-yl)phenethyl)piperazin-1-yl)phenyl)-1H-pyrazolo[3,4-b]pyridin-3-yl)-2-methylbenzyl)-1,2,4-oxadiazole-3-carboxamide]: the DC50 came to 3.83 nM.
